Earlier results on 3 compounds are cited in patent US20250127900A1, “STABLE PHARMACEUTICAL COMPOSITIONS” (MANKIND PHARMA LTD., priority 2021, published 2025).

Molecules are shown by their SMILES.

For data set [1] the following is noted: for Acceptable intake, EMA: EMA limit; for Acceptable intake, FDA: FDA limit.
The conditions of data set [2]: in vivo.

In the case of `CCN(CC)N=O` [N-Nitrosodiethylamine], in data set [1], the “Acceptable intake, EMA” value was 26.5 ng/day and the “Acceptable intake, FDA” value is recorded as 26.5 ng/day.

Turning to `CC(C)N(N=O)C(C)C` [N-Nitrosodiisopropylamine], in data set [1], the “Acceptable intake, EMA” value is on record as 26.5 ng/day and the “Acceptable intake, FDA” value is given as 26.5 ng/day.

For the compound `CN(C)N=O` [N-Nitrosodimethylamine], in data set [2], the LD50 was 10 mg/kg. For the same compound, in data set [1], the “Acceptable intake, EMA” value is reported as 96 ng/day and the “Acceptable intake, FDA” value is listed as 96 ng/day.
